Tests used:
[1] = guinea pig, in vivo
[2] = dog, in vivo
[3] = rat, in vivo
[4] = oral administration; cited from earlier work
substance P = conditions: rat, in vivo
Protocol: (§1) Lumbar intrathecal injections--rats: Rats (250-350 gm) were prepared with chronic intrathecal catheters placed in the lumbar intrathecal space. They received intrathecal administration of 15 μl of 25% CDEX. […] At 7 days, the levels of neuropeptides substance P and calcitonin gene-related peptide (CGRP) were measured after extraction of tissue, using radioimmunoassays.

[5] = system: calcitonin gene-related peptide (CGRP); conditions: rat, in vivo
Protocol: as §1

For 2-hydroxypropyl-β-cyclodextrin [CDEX], the “acute behavioral signs of agitation (irritation)” value [1] was “no acute behavioral signs of agitation”, the “motor function (placing, stepping and righting reflexes or ambulatory tests)” value [1] was “no changes” and the urine staining [1] was “No evidence of urine staining”. The bladder function [2] was “no effect”, the heart rate [2] was “no effect” and the skin twitch response [2] was “no effect”. For the same compound, the toxicity [2] was “lack of toxicity”, the EEG activity [3] was “no effect” and the general motor behavior [3] was “no effect”.
For `CS(=O)(=O)OCCCCOS(C)(=O)=O` [Busulfan, busulfan], the bone marrow depression [4] is listed as “severe bone marrow depression”.
With `C[S+](C)[O-]` [dimethyl sulfoxide] the “tissue level of substance P” value (substance P) was “significant reduction” and the “tissue level of CGRP” value [5] was “significant reduction”.
